Test results from ChEMBL document CHEMBL4483862, “Open-source discovery of chemical leads for next-generation chemoprotective antimalarials” (2018).

System: Plasmodium berghei
Experiment: Luciferase/luciferin-expressing antifolate-resistant parasites were used to infect a culture of HepG2 cells that were pre-incubated with compounds. Infected hepatocytes emit light due to the luciferase reaction. Assay results are presented as the percent inhibition of light emission compared to control. […]
Assay type: functional
Conditions: sporozoite; for IC90: read-out: LUCIFERASE INFECTION ASSAY - IC90
[1] = read-out: LUCIFERASE INFECTION ASSAY - IC50

Row | Structure (SMILES) | IC90 | IC50 [1] | also measured
1 | CNC(=O)N(C1=NCC(C)(C)S1)c1cccc(C(F)(F)F)c1 | > 9.96 µM |  | IC50 (HEPG2TOX_HILL_SLOPE 2.33, HEPG2TOX_R_SQUARED 0.841, PBLUC_HILL_SLOPE 2.51, PBLUC_R_SQUARED 0.0629, read-out: LUCIFERASE INFECTION ASSAY - IC50): 7.95 µM
2 | CCCCNC(=O)c1c(NC(=O)c2ccc(C(=O)OC)cc2)nc2ccccn12 | > 8.37 µM |  | IC50 (PBLUC_HILL_SLOPE 12.3, PBLUC_R_SQUARED 0.245, read-out: LUCIFERASE INFECTION ASSAY - IC50): 7.76 µM
3 | CCOC(=O)c1ccc2c(c1)C1C=CCC1C(c1cccnc1)N2 (stereo not drawn) | > 10.3 µM | > 10.3 µM | 
4 | Cc1cc(C(=O)CN(C)Cc2nc(=O)c3ccccc3[nH]2)c(C)n1CC1COc2ccccc2O1 (stereo not drawn) | > 10 µM | 0.371 µM | 
5 | Cc1cccc2c(=O)n(CC(=O)NCc3ccc(C(=O)N4CCCCC4)cc3)cnc12 | 3.14 µM |  | IC50 (HEPG2TOX_HILL_SLOPE 1.92, HEPG2TOX_R_SQUARED 0.972, PBLUC_HILL_SLOPE 11.2, PBLUC_R_SQUARED 0.559, read-out: LUCIFERASE INFECTION ASSAY - IC50): 2.58 µM
6 | CCCn1c(NC(=O)c2ccccc2SCc2c(C)noc2C)nc2ccccc21 | 9.89 µM |  | IC50 (FFLUC_HILL_SLOPE 30, FFLUC_R_SQUARED 0.401, HEPG2TOX_HILL_SLOPE 7.23, HEPG2TOX_R_SQUARED 0.341, PBLUC_HILL_SLOPE 15.1, PBLUC_R_SQUARED 0.618, read-out: LUCIFERASE INFECTION ASSAY - IC50): 8.55 µM
7 | CCCCOc1ccc(Nc2nc(C(N)c3ccccc3Cl)cs2)nn1 (stereo not drawn) | 8.44 µM |  | IC50 (PBLUC_HILL_SLOPE 6.47, PBLUC_R_SQUARED 0.485, read-out: LUCIFERASE INFECTION ASSAY - IC50): 6.01 µM
8 | COC(=O)c1c(NC(C)=O)c2cc(NC(C)Cc3ccccc3F)cnc2n1CCC(C)C (stereo not drawn) | > 7.26 µM | > 7.26 µM | 
9 | CC(=O)N(/N=C/c1ccc(Cl)cc1)C1=NN(C(C)=O)C(c2ccc(Cl)cc2)S1 (stereo not drawn) | > 7.58 µM | > 7.58 µM | 
10 | CNc1cc(Nc2cc(C)c(Oc3cccc(C(C)(C)C)c3)cc2C)ncn1 | 8.49 µM |  | IC50 (FFLUC_HILL_SLOPE 11.3, FFLUC_R_SQUARED 0.0353, HEPG2TOX_HILL_SLOPE 16.8, HEPG2TOX_R_SQUARED 0.912, PBLUC_HILL_SLOPE 9.72, PBLUC_R_SQUARED 0.605, read-out: LUCIFERASE INFECTION ASSAY - IC50): 6.77 µM
11 | Cc1cc(C(=O)N/N=C/c2ccc([N+](=O)[O-])s2)nn1-c1c(Cl)cc(Cl)cc1Cl | 4.83 µM |  | IC50 (FFLUC_HILL_SLOPE 59.9, FFLUC_R_SQUARED 0.709, PBLUC_HILL_SLOPE 2.3, PBLUC_R_SQUARED 0.454, read-out: LUCIFERASE INFECTION ASSAY - IC50): 1.86 µM
12 | C/N=c1\scc(-c2ccc(C)c(C)c2)n1/N=C/c1ccc[nH]1 | > 10 µM |  | IC50 (FFLUC_HILL_SLOPE 1.19, FFLUC_R_SQUARED 0.95, read-out: LUCIFERASE INFECTION ASSAY - IC50): > 10 µM
13 | Cc1ccc2nc(CNc3cc(Cl)ccc3N3CCCC3)cc(=O)n2c1 | > 10 µM | > 10 µM | 
14 | Nc1nccc(/C=C/c2c(F)cccc2Cl)n1 | > 13.2 µM |  | IC50 (HEPG2TOX_HILL_SLOPE 2, HEPG2TOX_R_SQUARED 0.972, PBLUC_HILL_SLOPE 2.11, PBLUC_R_SQUARED 0.172, read-out: LUCIFERASE INFECTION ASSAY - IC50): 8.94 µM
15 | COCCCNc1nnc(Cc2ccc(Cl)cc2)c(O)n1 | > 10.7 µM |  | IC50 (HEPG2TOX_HILL_SLOPE 2.55, HEPG2TOX_R_SQUARED 0.699, PBLUC_HILL_SLOPE 0.604, PBLUC_R_SQUARED 0.236, read-out: LUCIFERASE INFECTION ASSAY - IC50): 6.39 µM
16 | CCCNC(=O)c1c(NC(=O)c2cccc(Cl)c2Cl)nc2ccc(C)cn12 | > 8.14 µM | > 8.14 µM | 
17 | Cc1nsc(N)c1C(=O)OCc1cc(=O)n2c3c(sc2n1)CCCC3 | > 10 µM |  | IC50 (FFLUC_HILL_SLOPE 11.9, FFLUC_R_SQUARED 0.297, read-out: LUCIFERASE INFECTION ASSAY - IC50): > 10 µM
18 | CC1N(C)c2cc(NC(=O)/C=C/c3ccc(F)cc3)ccc2C1(C)C (stereo not drawn) | > 10 µM |  | IC50 (PBLUC_HILL_SLOPE 2.49, PBLUC_R_SQUARED 0.1, read-out: LUCIFERASE INFECTION ASSAY - IC50): 5.32 µM
19 | NC(=O)NC(CC(=O)NCc1cccs1)c1cccc(Oc2ccccc2)c1 (stereo not drawn) | > 10 µM |  | IC50 (FFLUC_HILL_SLOPE 0.589, FFLUC_R_SQUARED 0.0522, PBLUC_HILL_SLOPE 12.1, PBLUC_R_SQUARED 0.469, read-out: LUCIFERASE INFECTION ASSAY - IC50): 9.25 µM
20 | CCCCN1C(=O)c2ccc(C(=O)C(C#N)c3nc4ccccc4[nH]3)cc2C1=O (stereo not drawn) | > 10 µM | > 10 µM | 
21 | S=C(Nc1ccc(Oc2ccccc2)cc1)Nc1cccc2cnccc12 | > 10 µM |  | IC50 (PBLUC_HILL_SLOPE 1.05, PBLUC_R_SQUARED 0.612, read-out: LUCIFERASE INFECTION ASSAY - IC50): 4.86 µM
22 | O=C(NC(c1ccccc1)C1CC1)c1cccc(S(=O)(=O)N2CCN(c3ccc(F)cc3)CC2)c1 (stereo not drawn) | > 10 µM |  | IC50 (FFLUC_HILL_SLOPE 1.82, FFLUC_R_SQUARED 0.654, PBLUC_HILL_SLOPE 3.16, PBLUC_R_SQUARED 0.76, read-out: LUCIFERASE INFECTION ASSAY - IC50): 7.34 µM

Row | Structure (SMILES) | IC90 | IC50 [1] | also measured
23 | CNc1nc2cnc(Nc3cc(C(F)(F)F)ccc3F)cc2n1-c1ccccc1 | > 10 µM |  | IC50 (PBLUC_HILL_SLOPE 2.9, PBLUC_R_SQUARED 0.508, read-out: LUCIFERASE INFECTION ASSAY - IC50): 6.14 µM
24 | Cc1ccc(NC(=O)c2cc(-c3ccc4c(c3)OCCO4)nc3c2cnn3C(C)C)nc1 | > 10 µM | > 10 µM | 
25 | COc1cc(/C=C/C(=O)c2ccc(Cl)c([N+](=O)[O-])c2)ccc1OC(F)F | > 10 µM | > 10 µM | 
26 | N=S(=O)(c1ccc(Cl)cc1)c1cccs1 (stereo not drawn) | > 12.8 µM | > 12.8 µM | 
27 | NC1=C(c2ccccc2)C(=O)c2ccccc21 | > 14.9 µM |  | IC50 (PBLUC_HILL_SLOPE 3.17, PBLUC_R_SQUARED 0.165, read-out: LUCIFERASE INFECTION ASSAY - IC50): > 14.9 µM
28 | CCc1cccc(CC)c1NC(=O)COC(=O)c1[nH]c(C)c(C(C)=O)c1C | > 10 µM | > 10 µM | 
29 | Cn1c(NCc2ccccc2)nc2cnc(Nc3cccc(C(F)(F)F)c3)cc21 | > 10 µM |  | IC50 (PBLUC_HILL_SLOPE 1.17, PBLUC_R_SQUARED 0.452, read-out: LUCIFERASE INFECTION ASSAY - IC50): 4.08 µM
30 | Oc1c(C(c2ccc(Br)cc2)N2CCCC2)cc(Cl)c2cccnc12 (stereo not drawn) | 4.01 µM |  | IC50 (FFLUC_HILL_SLOPE 1.86, FFLUC_R_SQUARED 0.64, HEPG2TOX_HILL_SLOPE 1.66, HEPG2TOX_R_SQUARED 0.745, PBLUC_HILL_SLOPE 3.81, PBLUC_R_SQUARED 0.789, read-out: LUCIFERASE INFECTION ASSAY - IC50): 2.25 µM
31 | COc1ccc(OC)c(CSc2nnc(Nc3cccc(F)c3)s2)c1 | > 10 µM | > 10 µM | 
32 | CCCN1CCN(c2c3ccc(Cl)cc3nc3ccc(OC)cc23)CC1 | > 10 µM | > 10 µM | 
33 | O=C(NCCc1c[nH]c2ccccc12)c1ccc2c(c1)CC(c1ccccc1)OC2=O (stereo not drawn) | > 10 µM | > 10 µM | 
34 | Cn1nc(C(=O)N2CCc3ccccc3C2)c2c1CCC(NCCc1nc(-c3ccccc3)cs1)C2 (stereo not drawn) | > 6.63 µM |  | IC50 (PBLUC_HILL_SLOPE 5.11, PBLUC_R_SQUARED 0.298, read-out: LUCIFERASE INFECTION ASSAY - IC50): 5.56 µM
35 | CN(CC(=O)Nc1ccc(Oc2ccccc2)cc1)c1c(N)n(Cc2ccccc2)c(=O)[nH]c1=O | > 10 µM |  | IC50 (PBLUC_HILL_SLOPE 10.4, PBLUC_R_SQUARED 0.215, read-out: LUCIFERASE INFECTION ASSAY - IC50): 9.74 µM
36 | CCC(C)(C)c1ccc(Oc2ccc(NC(=O)CSc3nnc(-c4ccccc4)[nH]3)cc2)cc1 | 7.78 µM |  | IC50 (HEPG2TOX_HILL_SLOPE 9.08, HEPG2TOX_R_SQUARED 0.57, PBLUC_HILL_SLOPE 3.67, PBLUC_R_SQUARED 0.581, read-out: LUCIFERASE INFECTION ASSAY - IC50): 4.28 µM
37 | N#CC(C#N)=NNc1ccccc1Oc1ccc(Cl)cc1Cl | > 9.96 µM |  | IC50 (FFLUC_HILL_SLOPE 1.54, FFLUC_R_SQUARED 0.588, HEPG2TOX_HILL_SLOPE 1.18, HEPG2TOX_R_SQUARED 0.604, read-out: LUCIFERASE INFECTION ASSAY - IC50): > 9.96 µM
38 | CSc1nnc(-c2ccc(C(C)(C)C)cc2)n1C | > 12.6 µM | > 12.6 µM | 
39 | CCC(C)NC(=O)c1c(NC(=O)c2ccc(C)cc2)nc2ccc(C)cn12 (stereo not drawn) | 7.69 µM |  | IC50 (PBLUC_HILL_SLOPE 5.31, PBLUC_R_SQUARED 0.131, read-out: LUCIFERASE INFECTION ASSAY - IC50): 5.08 µM
40 | COc1ccc(-c2nc3ccc(NC(=O)Nc4ccc(F)c(Cl)c4)cn3n2)cc1 | 8.19 µM |  | IC50 (PBLUC_HILL_SLOPE 3.84, PBLUC_R_SQUARED 0.577, read-out: LUCIFERASE INFECTION ASSAY - IC50): 4.62 µM
41 | CCN(Cc1ccccc1)S(=O)(=O)c1ccc2c(c1)CCCN2C(C)=O | > 10 µM |  | IC50 (PBLUC_HILL_SLOPE 1.76, PBLUC_R_SQUARED 0.382, read-out: LUCIFERASE INFECTION ASSAY - IC50): 8.69 µM
42 | Cc1ccc(-c2cc(=O)n(-c3nc4ccccc4[nH]3)[nH]2)cc1 | > 11.4 µM | > 11.4 µM | 
43 | COC(=O)c1ccc(-c2cnc3ccc(NCc4cccc(Cl)c4)nn23)cc1 | > 8.4 µM |  | IC50 (PBLUC_HILL_SLOPE 14.1, PBLUC_R_SQUARED 0.0198, read-out: LUCIFERASE INFECTION ASSAY - IC50): 7.46 µM
44 | CCOC(=O)c1sc(NC(=O)Nc2ccc([N+](=O)[O-])cc2)cc1C | 4.91 µM |  | IC50 (HEPG2TOX_HILL_SLOPE 2.1, HEPG2TOX_R_SQUARED 0.922, PBLUC_HILL_SLOPE 2.24, PBLUC_R_SQUARED 0.786, read-out: LUCIFERASE INFECTION ASSAY - IC50): 1.84 µM
